Laboratory results from US20110144056A1, “PYRAZOLE DERIVATIVES USEFUL AS INHIBITORS OF FAAH” (priority 2008, published 2011).

Experiments:
FAAH [1] = molecular target: T1, FAAH (Rattus norvegicus, UniProt P97612); experiment: FAAH whole cell assay, CHO cells expressing rat FAAH; assay type: cell-based
T1 construct: expressed in transfected cells; cDNA by RT-PCR from brain cDNA (BD Biosciences)
T1 sequence (P97612 1-579): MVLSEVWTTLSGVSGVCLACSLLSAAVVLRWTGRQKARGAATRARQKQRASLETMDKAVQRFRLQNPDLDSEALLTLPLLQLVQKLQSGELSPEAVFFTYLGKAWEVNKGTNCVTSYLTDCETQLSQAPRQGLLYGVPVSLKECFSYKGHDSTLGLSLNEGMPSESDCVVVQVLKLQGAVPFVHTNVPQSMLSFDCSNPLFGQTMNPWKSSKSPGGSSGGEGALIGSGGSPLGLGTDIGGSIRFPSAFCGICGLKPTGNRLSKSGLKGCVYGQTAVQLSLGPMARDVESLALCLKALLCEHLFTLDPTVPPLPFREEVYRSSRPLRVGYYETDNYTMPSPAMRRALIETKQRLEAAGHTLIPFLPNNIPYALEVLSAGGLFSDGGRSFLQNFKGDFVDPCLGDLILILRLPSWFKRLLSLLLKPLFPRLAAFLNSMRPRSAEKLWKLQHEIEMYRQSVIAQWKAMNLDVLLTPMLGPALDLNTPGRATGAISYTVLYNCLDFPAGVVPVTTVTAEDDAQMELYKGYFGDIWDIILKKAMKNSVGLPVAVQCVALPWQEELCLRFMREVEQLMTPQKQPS
From the text: (§1) Murine (accession number NM_010173) and Rat FAAH (accession number NM_024132) was amplified by reverse transcriptase polymerase chain reaction (RT-PCR) from brain cDNA (BD Biosciences, San Jose, Calif.) using primers 1 and 2 or primers 1 and 3 respectively (see Table). The resulting PCR product was ligated into pCR4TOPO and DNA sequence confirmed. The full length murine FAAH was subcloned into the mammalian expression vector, pcDEFneo using either EcoRI (murine) or KpnI and EcoRI (rat) restriction sites. Chinese hamster ovary cells (CHO) were transfected following manufacturers protocol (AMAXA). Forty eight hours post transfection, cells were trypsinized and transferred to 96 well plates in Iscove's DMEM media supplemented with 2 mM Glutamine, 10% fetal calf serum, 1 mg/ml geneticin and HT Supplement (0.1 mM sodium hypoxanthine, 0.016 mM thymidine) in order to isolate single clones. Following selection in geneticin, individual clones were selected and FAAH activity was assessed using a whole cell fluorescent anandamide assay, modified from Ramarao et al (2005). Following removal of tissue culture media cells were dislodged following addition of Cellstripper (Mediatech, Inc. Manassas, Va.) and transferred to 96 well black clear bottom assay plate, centrifuged at 1,000 rpm for 3 mins and media removed and replaced with assay buffer (50 mM Tris pH8.0, 1 mM EDTA, 0.1% fatty acid free BSA). The reaction was initiated by addition of fluorescent substrate, AMC Arachidonoyl Amide (Cayman Chemical, Ann Arbor, Mich.) to 1 μM and reaction allowed to proceed for 2 hours at room temperature. Release of fluorescence was monitored in a CytoFluor Multiplate Reader. Cells expressing the highest amount of FAAH activity were selected for study with FAAH inhibitors.
(§2) Assays are performed on either cell lysate or microsome fractions prepared as described or in whole cell format employing either the fluorescent substrate AAMCA (Cayman chemical, Ann Arbor, Mich.,) or ^3H-anandmaide ([ETHANOLAMINE-1-3H]American Radiolabeled Chemicals; 1 mCi/ml). The cell lysate or microsome assay is performed in Costar black wall, clear bottom plates by adding FAAH_CHO (whole cell, cell lysate or microsome) in assay buffer (50 mM Phosphate, pH 8.0, 1 mM EDTA, 200 mM KCl, 0.2% glycerol, 0.1% fatty acid free BSA) to each well, followed by either DMSO or compound and allowed to incubate at 22-25° C. for fifteen minutes. AAMCA substrate was used to achieve a final concentration of 1 μM and reaction allowed to proceed at room temperature for 1-3 hours. Fluorescent release as a measure of FAAH activity was monitored by reading the plate in a CytoFluor Multiplate Reader ([…]). Whole cell assay is conducted with cells harvested after rinsing tissue culture flasks three times with Ca^++Mg^++ free PBS, incubating for 10 mm in Enzyme free dissociation media and centrifuging for 5 minutes at 1,000 rpm in table top centrifuge. Cells are resuspended in assay buffer at desired cell number in (4×10^4 cells/assay in 96-well format; 1×10^4 cells/assay in 384-well format) and assayed as described.

FAAH [2] = molecular target: T2, FAAH (Homo sapiens, UniProt O00519); experiment: FAAH whole cell assay, CHO cells expressing human FAAH; assay type: cell-based
T2 construct: The full length FAAH was subcloned into the mammalian expression vector, pcDEF.neo; expressed in transfected cells; cDNA from Origene
T2 sequence (O00519 1-579): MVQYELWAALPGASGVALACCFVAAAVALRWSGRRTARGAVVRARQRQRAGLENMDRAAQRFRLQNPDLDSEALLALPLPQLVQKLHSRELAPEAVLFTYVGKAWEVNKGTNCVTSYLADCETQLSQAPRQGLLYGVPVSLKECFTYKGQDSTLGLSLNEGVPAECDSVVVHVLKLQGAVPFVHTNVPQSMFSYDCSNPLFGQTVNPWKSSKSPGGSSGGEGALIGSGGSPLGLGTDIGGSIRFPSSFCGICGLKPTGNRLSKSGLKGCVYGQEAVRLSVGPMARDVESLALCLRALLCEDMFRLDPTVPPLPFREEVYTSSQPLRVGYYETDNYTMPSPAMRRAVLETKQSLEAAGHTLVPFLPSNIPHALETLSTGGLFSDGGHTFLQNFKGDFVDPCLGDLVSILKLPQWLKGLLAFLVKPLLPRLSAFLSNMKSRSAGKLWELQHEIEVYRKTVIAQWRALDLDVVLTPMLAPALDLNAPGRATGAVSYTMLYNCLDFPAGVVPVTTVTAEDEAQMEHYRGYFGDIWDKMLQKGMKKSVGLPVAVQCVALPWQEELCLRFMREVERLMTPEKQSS
From the text: (§3) To assist in assay development stable cell lines for human, murine and rat full length FAAH were developed. Human FAAH cDNA (Accession No: NM_001441.1) was purchased from Origene (Rockville, Md.). The full length FAAH was subcloned into the mammalian expression vector, pcDEF.neo, using XbaI and […] restriction sites and used for stable cell line generation.
as §1, §2

FAAH [3] = molecular target: T2, FAAH; experiment: FAAH enzyme assay, lysate of CHO cells expressing human FAAH; assay type: biochemical
From the text: as §3
CHO cells expressing FAAH were used to prepare either crude cell lysate or microsome fractions. To harvest cells, tissue culture media was decanted, the monolayer washed three times with Ca^++Mg^++ free PBS and cells recovered after 15 min in enzyme free dissociation media (Millipore Corp, Billerica, Mass.). Cells were collected by centrifuging at 2000 rpm for 15 min. and the cell pellet re-suspended with 50 mM HEPES (pH 7.4) containing 1 mM EDTA and the protease inhibitors aprotinin (1 mg/ml) and leupeptin (100 μM). The suspension was sonicated at 4° C. and the cell lysate recovered after centrifuging at 12,000×g (14,600 rpm, SS34 rotor) for 20 min at 4° C. to form a crude pellet of cell debris, nuclei, peroxisomes, lysosomes, and mitochondria; the supernatant or cell lysate was used for FAAH enzyme assay. In some cases, microsomes fractions enriched in FAAH were prepared by centrifuging the cell lysate further at 27,000 rpm (100,000×g) in SW28 rotor for 50 minutes at 4° C. The pellet containing FAAH-enriched microsomes was re-suspend in 50 mM HEPES, (pH 7.4) 1 mM EDTA, and any remaining DNA sheared by passage of material through a 23 gauge needle and aliquots of enzyme were store at −80° C. prior to use.
(American Radiolabeled Chemicals; 1 mCi/ml) with FAAH (Life Sciences (1995), 56, 1999-2005 and Journal of Pharmacology and Experimented Therapeutics (1997), 283, 729-734), Analytical. Biochemistry (2003), 318, 270-5. In addition, routine assays were performed monitoring hydrolysis of arachidonyl-7-amino-4-methylcoumarin amide (AAMCA) by following increase in fluorescence upon release of 7-amino 4-methyl coumarin (λEX=355 nm, (λEM=460 nm). Analytical. Biochemistry (2005). 343, 143-51.
as §2
Alternatively, assays are performed using anandamide [ethanolamine 1-^3H] (specific activity of 10 Ci/mmol) diluted with cold anandamide to achieve a final assay concentration of 1 μM anandamide (˜50,000 cpm). Enzyme (CHO cell lysate, brain or liver homogenate) is incubated in assay buffer (50 mM Phosphate, pH 8.0, 1 mM EDTA, 200 mM KCl, 0.2% glycerol, 0.1% fatty acid free BSA) with inhibitor at 25° C. for 30 minutes. The reaction was terminated by addition of 2 volumes of chloroform:methanol (1:1) and mixed by vortexing. […]

[4] = CHO cell lysate, read-out: Human Lysate
[5] = cell lysate, read-out: FAAH Human Cell Lysate IC50
[6] = read-out: FAAH Human Whole Cell IC50

Row | IC50 (FAAH [3]; [5]) | Compound | further results
1 | 14.8 nM | NC(=O)c1ccc2cc(-c3nn(C4CC4)cc3Sc3ccc(Cl)cn3)ccc2n1 [Example 396] | –
2 | 172 nM | N#Cc1ccc2cc(-c3nn(C4CC4)cc3Sc3ccc(Cl)cn3)ccc2n1 [Example 397] | –
3 | 0.77 nM | CCOC(=O)c1ccc2cc(-c3n[nH]cc3Sc3ccc(Cl)cn3)ccc2n1 [Example 398] | –
4 | 11 nM | CCOC(=O)c1ccc2cc(-c3nn(C4CC4)cc3Sc3ccc(Cl)cn3)ccc2n1 [Example 399] | –
5 | 39 nM | CN(C)C(=O)c1ccc2cc(-c3nn(C4CC4)cc3Sc3ccc(Cl)cc3)ccc2n1 [Example 400] | –
6 | 291 nM | CN(C)C(=O)c1ccc2cc(-c3nn(C4CC4)cc3Sc3ncc(Cl)cn3)ccc2n1 [Example 401] | –

Continued, molecule first:

Row | Compound | IC50 (FAAH [3]; [5]) | further results
7 | CS(=O)(=O)c1ccc(-c2nn(-c3ccc(F)cc3)cc2Sc2ccc(Cl)cc2)cc1 [Ex 1] | – | IC50 (FAAH [1]): 18 nM; IC50 (FAAH [2]; read-out: Human whole cell): 36 nM; IC50 (FAAH [3]; [4]): 16 nM
8 | CS(=O)(=O)c1ccc(-c2nn(-c3ccncc3)cc2Sc2ccc(Cl)cc2)cc1 [Ex 5] | – | IC50 (FAAH [1]): 16 nM; IC50 (FAAH [2]; read-out: Human whole cell): 48 nM; IC50 (FAAH [3]; [4]): 28 nM
9 | CS(=O)(=O)c1ccc(-c2nn(C3CCCC3)cc2Sc2ccc(Cl)cc2)cc1 [Ex 23] | – | IC50 (FAAH [1]): 86 nM; IC50 (FAAH [2]; read-out: Human whole cell): 141 nM; IC50 (FAAH [3]; [4]): 143 nM
10 | OC(c1ccc2cc(-c3nn(CCF)cc3Sc3ccc(Cl)cc3)ccc2n1)C(F)(F)F (centres unmarked) [Example 373] | 49 nM | –
11 | OCc1ccc2cc(-c3n[nH]cc3Sc3ccc(Cl)cc3)ccc2n1 [Example 375] | 11 nM | –
12 | CCC(=O)N1CCc2cc(-c3n[nH]cc3Sc3ccc(Cl)cc3)ccc2C1 [Example 376] | 168 nM | –
13 | CC(=O)N1CCc2cc(-c3nn(C(C)C)cc3Sc3ccc(Cl)cc3)ccc2C1 [Example 377] | 33 nM | –
14 | FC(F)c1ccc2cc(-c3nn(-c4ccccn4)cc3Sc3ccc(Cl)cc3)ccc2n1 [Example 379] | 4.9 nM | –
15 | Fc1ccc(-n2cc(Sc3ccc(Cl)cc3)c(-c3ccc4nc(C(F)F)ccc4c3)n2)cc1 [Example 380] | 24 nM | –
16 | FC(F)c1ccc2cc(-c3nn(C4CC4)cc3Sc3ccc(Cl)cc3)ccc2n1 [Example 381] | 9.5 nM | –
17 | CCn1cc(-n2cc(Sc3ccc(Cl)cc3)c(-c3ccc4nc(C(F)F)ccc4c3)n2)cn1 [Example 382] | 4.9 nM | –
18 | FC(F)c1ccc2cc(-c3nn(C4CC4)cc3Sc3ccc(Cl)cn3)ccc2n1 [Example 383] | 29 nM | –
19 | Cc1ccc2cc(-c3nn(C4CC4)cc3Sc3ccc(Cl)cc3)ccc2n1 [Example 384] | 18 nM | –
20 | Cc1ccc2cc(-c3n[nH]cc3Sc3ccc(Cl)cc3)ccc2n1 [Example 385] | 192 nM | –
21 | Clc1ccc(Sc2cn(C3CC3)nc2-c2ccc3nc(Cl)ccc3c2)cc1 [Example 386] | 94 nM | –
22 | CCOC(=O)c1cnc2cc(-c3n[nH]cc3Sc3ccc(Cl)cc3)cnc2c1 [Example 387] | 14 nM | –
23 | CCC(=O)N1CCc2cc(-c3nn(CCF)cc3Sc3ccc(Cl)cc3)ccc2C1 [Example 390] | 62 nM | –
24 | OCc1cnc2cc(-c3nn(CCF)cc3Sc3ccc(Cl)cc3)ccc2c1 [Example 391] | 24 nM | –
25 | CCNC(=O)c1cnc2cc(-c3nn(CCF)cc3Sc3ccc(Cl)cc3)cnc2c1 [Example 392] | 47 nM | –
26 | CCOC(=O)c1cnc2cc(-c3nn(CCF)cc3Sc3ccc(Cl)cc3)cnc2c1 [Example 393] | 16 nM | –
27 | CCNC(=O)c1cnc2cc(-c3nn(CCF)cc3Sc3ccc(Cl)cc3)ccc2c1 [Example 394] | 15 nM | –
28 | CCNC(=O)c1ccc2cc(-c3c(Sc4ccc(Cl)cc4)cnn3C3CCCCO3)ccc2n1 (centres unmarked) [Example 402] | – | IC50 (FAAH [2]; [6]): 9.1 nM
29 | CC(C)(O)c1ccc2cc(-c3c(Sc4ccc(Cl)cc4)cnn3C3CCCCO3)ccc2n1 (centres unmarked) [Example 403] | – | IC50 (FAAH [2]; [6]): 63 nM
30 | CC(=O)N1CCc2cc(-c3c(Sc4ccc(Cl)cc4)cnn3C3CCCCO3)ccc2C1 (centres unmarked) [Example 404] | – | IC50 (FAAH [2]; [6]): 25 nM
31 | N#Cc1ccc2cc(-c3c(Sc4ccc(Cl)cc4)cnn3C3CCCCO3)ccc2n1 (centres unmarked) [Example 405] | – | IC50 (FAAH [2]; [6]): 35 nM
32 | CCOC(=O)c1cnc2cc(-c3c(Sc4ccc(Cl)cc4)cnn3C3CCCCO3)ccc2c1 (centres unmarked) [Example 407] | – | IC50 (FAAH [2]; [6]): 1.94 nM
